Data on 25 compounds can be found in PubChem BioAssay AID256 (DTP/NCI, 2004).

The experiment relates to CD2F1 mice, L1210 leukemia ip, survival T/C. The experiment in a line: NCI In Vivo Anticancer Drug Screen. Data for tumor model L1210 Leukemia (intraperitoneal) in CD2F1 (CDF1) mice. The note with it: higher = longer survival. The method in brief:
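Read-out first: treated-group measurement over vehicle-control measurement, expressed as a ratio. Animals bore a transplanted tumor line and were dosed with compound or vehicle.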

The mark [1] stands for this setting: endpoint: mean survival time, dose: 100.0 mg/kg/injection, schedule: Q01DX001 (ip), vehicle: saline with Tween-80.
Setting [2] is: endpoint: mean survival time, dose: 400.0 mg/kg/injection, schedule: Q01DX001 (ip), vehicle: saline with Tween-80.
[3] abbreviates: endpoint: mean survival time, dose: 75.0 mg/kg/injection, schedule: Q01DX001 (ip), vehicle: saline.
The mark [4] stands for this setting: endpoint: mean survival time, dose: 100.0 mg/kg/injection, schedule: Q04DX003 (ip), vehicle: saline with Tween-80.
[5] abbreviates: endpoint: mean survival time, dose: 200.0 mg/kg/injection, schedule: Q04DX003 (ip), vehicle: saline with Tween-80.
Setting [6] is: endpoint: mean survival time, dose: 100.0 mg/kg/injection, schedule: Q01DX009 (ip), vehicle: saline with Tween-80.
Where [7] appears, read: endpoint: mean survival time, dose: 200.0 mg/kg/injection, schedule: Q01DX009 (ip), vehicle: saline with Tween-80.
Setting [8] is: endpoint: mean survival time, dose: 400.0 mg/kg/injection, schedule: Q01DX009 (ip), vehicle: saline with Tween-80.
[9] abbreviates: endpoint: mean survival time, dose: 400.0 mg/kg/injection, schedule: Q04DX003 (ip), vehicle: saline with Tween-80.
[10] abbreviates: endpoint: mean survival time, dose: 50.0 mg/kg/injection, schedule: Q01DX009 (ip), vehicle: saline with Tween-80.

The structures appear in SMILES notation. Toxic doses and inconclusive results are not listed.

For the compound `O=C1N(CC2CO2)CCN1CC1CO1` (stereo not given), the T/C is, setting by setting: (endpoint: median survival time, dose: 12.5 mg/kg/injection, schedule: Q01DX009 (ip), vehicle: saline) 123 % of control; (endpoint: median survival time, dose: 50.0 mg/kg/injection, schedule: Q01DX009 (ip), vehicle: saline) 157 % of control; (endpoint: median survival time, dose: 100.0 mg/kg/injection, schedule: Q01DX009 (ip), vehicle: saline) 174 % of control; (endpoint: median survival time, dose: 200.0 mg/kg/injection, schedule: Q01DX009 (ip), vehicle: saline) 277 % of control; (endpoint: median survival time, dose: 400.0 mg/kg/injection, schedule: Q01DX009 (ip), vehicle: saline) 86 % of control.

Take `COc1ccc(NC(C)=O)c(O)c1C`: the T/C is 95 % of control under setting [1] and 90 % of control under setting [2].

Take `C=CCN(CC=C)C1=CC(=O)C(=O)c2ccccc21`: the T/C is, setting by setting: under setting [3], 91 % of control; (endpoint: mean survival time, dose: 150.0 mg/kg/injection, schedule: Q01DX001 (ip), vehicle: saline) 100 % of control; (endpoint: mean survival time, dose: 300.0 mg/kg/injection, schedule: Q01DX001 (ip), vehicle: saline) 89 % of control.

As to `[O-][n+]1c2ccccc2c(Oc2ccccc2)c2ccc3ccccc3c21`, the T/C (endpoint: mean survival time, dose: 25.0 mg/kg/injection, schedule: Q04DX003 (ip), vehicle: saline with Tween-80) is 98 % of control; the T/C (endpoint: mean survival time, dose: 50.0 mg/kg/injection, schedule: Q04DX003 (ip), vehicle: saline with Tween-80) was 95 % of control; the T/C under setting [4] is 86 % of control.

In the case of `COc1cccc2c1C(=O)c1c(O)c3c(c(O)c1C2=O)C[C@@](O)(C(C)=O)C[C@@H]3OC1CC(N(Cc2ccccc2)Cc2ccccc2)C(O)C(C)O1` (stereo not given in full), the T/C by setting is: (endpoint: mean survival time, dose: 1.5 mg/kg/injection, schedule: Q01DX009 (ip), vehicle: saline with Tween-80) 105 % of control; (endpoint: mean survival time, dose: 3.0 mg/kg/injection, schedule: Q01DX009 (ip), vehicle: saline with Tween-80) 111 % of control; (endpoint: mean survival time, dose: 6.0 mg/kg/injection, schedule: Q01DX009 (ip), vehicle: saline with Tween-80) 117 % of control; (endpoint: mean survival time, dose: 12.0 mg/kg/injection, schedule: Q01DX009 (ip), vehicle: saline with Tween-80) 150 % of control; (endpoint: mean survival time, dose: 24.0 mg/kg/injection, schedule: Q01DX009 (ip), vehicle: saline with Tween-80) 115 % of control; (endpoint: mean survival time, dose: 48.0 mg/kg/injection, schedule: Q01DX009 (ip), vehicle: saline with Tween-80) 94 % of control.

As for `c1ccc(C(c2ccccc2)c2ccccc2)cc1`, the T/C under setting [4] is 97 % of control and the T/C under setting [5] is 98 % of control.

As for `N#Cc1ccccc1NN=NCc1ccccc1`, the T/C by setting is: under setting [1], 97 % of control; under setting [2], 90 % of control.

Consider `CCCCCCC(=O)CCCCCC/C=C/CC(O)C(O)C(N)(CO)C(=O)O` (stereo not given), for which the T/C (endpoint: mean survival time, dose: 12.5 mg/kg/injection, schedule: Q04DX002 (ip), vehicle: saline with Tween-80) was 86 % of control.

`CC(=O)OCC1CCC1`: the T/C runs as follows: under setting [6], 95 % of control; under setting [7], 95 % of control; under setting [8], 103 % of control.

With `CC(=O)N1c2cc3ccccc3cc2N(C(C)=O)c2cc3ccccc3cc21`, the T/C runs as follows: under setting [4], 103 % of control; under setting [5], 103 % of control; under setting [9], 107 % of control.

For the compound `CC1=CCCC2(CCC3(C)CC32)C1(C)C` (stereo not given), the T/C by setting is: (endpoint: mean survival time, dose: 100.0 mg/kg/injection, schedule: Q04DX003 (ip), vehicle: acetone) 98 % of control; (endpoint: mean survival time, dose: 200.0 mg/kg/injection, schedule: Q04DX003 (ip), vehicle: acetone) 102 % of control; (endpoint: mean survival time, dose: 400.0 mg/kg/injection, schedule: Q04DX003 (ip), vehicle: acetone) 110 % of control.

For `CN(C)N=C1CCC2(CC1)c1ccccc1-c1ccccc12`, the T/C is 88 % of control (endpoint: mean survival time, dose: 200.0 mg/kg/injection, schedule: Q01DX001 (ip), vehicle: saline with Tween-80) and 87 % of control under setting [2].

In the case of `O=P(Oc1ccccc1)(Oc1ccccc1)C(Nc1ccccc1)c1cccnc1` (stereo not given), the T/C under setting [10] is 102 % of control, the T/C under setting [6] was 97 % of control and the T/C under setting [7] was 94 % of control.

For the compound `Cc1ccc([N+](=O)[O-])cc1NC(=O)Oc1ccc2c(C)cc(=O)oc2c1`, the T/C by setting is: (endpoint: mean survival time, dose: 100.0 mg/kg/injection, schedule: Q04DX002 (ip), vehicle: Klucel (hydroxypropylcellulose) (HPC)) 92 % of control; (endpoint: mean survival time, dose: 200.0 mg/kg/injection, schedule: Q04DX002 (ip), vehicle: Klucel (hydroxypropylcellulose) (HPC)) 100 % of control; (endpoint: mean survival time, dose: 400.0 mg/kg/injection, schedule: Q04DX002 (ip), vehicle: Klucel (hydroxypropylcellulose) (HPC)) 87 % of control.

`c1cc(-c2ncc[nH]2)ccn1`: the T/C was 112 % of control (endpoint: mean survival time, dose: 25.0 mg/kg/injection, schedule: Q01DX001 (ip), vehicle: saline with Tween-80); 96 % of control (endpoint: mean survival time, dose: 50.0 mg/kg/injection, schedule: Q01DX001 (ip), vehicle: saline with Tween-80); 104 % of control under setting [1].

In the case of `O=C1c2cccc(O)c2C(=O)c2c(O)cc(CO)cc21`, the T/C was 96 % of control (endpoint: mean survival time, dose: 1.25 mg/kg/injection, schedule: Q01DX009 (ip), vehicle: other); 102 % of control (endpoint: mean survival time, dose: 2.5 mg/kg/injection, schedule: Q01DX009 (ip), vehicle: other); 96 % of control (endpoint: mean survival time, dose: 5.0 mg/kg/injection, schedule: Q01DX009 (ip), vehicle: other); 102 % of control (endpoint: mean survival time, dose: 10.0 mg/kg/injection, schedule: Q01DX009 (ip), vehicle: other).

As for `CCC(CO)Nc1nc2c(c(=O)n(C)c(=O)n2C)n1C` (stereo not given), the T/C (endpoint: mean survival time, dose: 12.5 mg/kg/injection, schedule: Q01DX005 (ip), vehicle: distilled water + Tween-80) is 101 % of control; the T/C (endpoint: mean survival time, dose: 25.0 mg/kg/injection, schedule: Q01DX005 (ip), vehicle: distilled water + Tween-80) was 100 % of control; the T/C (endpoint: mean survival time, dose: 50.0 mg/kg/injection, schedule: Q01DX005 (ip), vehicle: distilled water + Tween-80) was 101 % of control; the T/C (endpoint: mean survival time, dose: 100.0 mg/kg/injection, schedule: Q01DX005 (ip), vehicle: distilled water + Tween-80) was 94 % of control; the T/C (endpoint: mean survival time, dose: 200.0 mg/kg/injection, schedule: Q01DX005 (ip), vehicle: distilled water + Tween-80) was 101 % of control.

Turning to `CNc1ccc(C(=O)O)cc1OC`, the T/C reads like this: under setting [4], 100 % of control; under setting [5], 100 % of control; under setting [9], 103 % of control.

On to `CC(=O)OCC1OC(n2ncc3c(Nc4ccccc4)ncnc32)C(OC(C)=O)C1OC(C)=O` (stereo not given), for which the T/C is 93 % of control (endpoint: mean survival time, dose: 25.0 mg/kg/injection, schedule: Q01DX009 (ip), vehicle: saline with Tween-80); 100 % of control under setting [10]; 87 % of control under setting [6]; 100 % of control under setting [7]; 100 % of control under setting [8].

For the compound `C=CCON`, the T/C under setting [3] was 100 % of control.

In the case of `COc1cc(Cl)ccc1NC(=O)Nc1c(C)n(C)n(-c2ccccc2)c1=O`, the T/C under setting [10] was 90 % of control and the T/C under setting [6] is 90 % of control.

As to `O=C(Nc1cc(Cl)ccc1C(=O)O)c1cccc(C[n+]2ccccc2)c1`, the T/C was 105 % of control (endpoint: median survival time, dose: 50.0 mg/kg/injection, schedule: Q01DX005 (ip), vehicle: saline with Tween-80); 98 % of control (endpoint: median survival time, dose: 100.0 mg/kg/injection, schedule: Q01DX005 (ip), vehicle: saline with Tween-80); 95 % of control (endpoint: median survival time, dose: 200.0 mg/kg/injection, schedule: Q01DX005 (ip), vehicle: saline with Tween-80); 91 % of control (endpoint: median survival time, dose: 400.0 mg/kg/injection, schedule: Q01DX005 (ip), vehicle: saline with Tween-80).

With `Cc1ccc(NC(=S)Nc2ccc(C)cc2)cc1`, the T/C under setting [6] was 89 % of control, the T/C under setting [7] was 91 % of control and the T/C under setting [8] is 93 % of control.

As for `CCCc1c(C)[nH]c2ccc(C)cc12`, the T/C was 102 % of control (endpoint: mean survival time, dose: 50.0 mg/kg/injection, schedule: Q01DX009 (ip), vehicle: saline); 104 % of control (endpoint: mean survival time, dose: 100.0 mg/kg/injection, schedule: Q01DX009 (ip), vehicle: saline); 101 % of control under setting [4]; 86 % of control under setting [5].

With `O=C1c2ccccc2CC1c1ccccc1` (stereo not given), the T/C is 102 % of control (endpoint: mean survival time, dose: 12.5 mg/kg/injection, schedule: Q01DX009 (ip), vehicle: other); 102 % of control (endpoint: mean survival time, dose: 25.0 mg/kg/injection, schedule: Q01DX009 (ip), vehicle: other); 97 % of control (endpoint: mean survival time, dose: 50.0 mg/kg/injection, schedule: Q01DX009 (ip), vehicle: other); 96 % of control (endpoint: mean survival time, dose: 100.0 mg/kg/injection, schedule: Q01DX009 (ip), vehicle: other); 100 % of control (endpoint: mean survival time, dose: 200.0 mg/kg/injection, schedule: Q01DX009 (ip), vehicle: other).
